Patent US20110172182A1, “Carboxyethylated Cyclodextrin Polysulfates Useful As Medicaments” (ARCARIOS B.V., priority 2008, published 2011)

How the values were obtained:
[1] = test system: human articular chondrocytes from osteoarthritic (OA) cartilage; test: Aggrecan synthesis by OA chondrocytes in alginate beads (ELISA of interterritorial matrix); assay type: cell-based; details: 5 μg/ml, 5 culture days
Text: (§1) Human articular chondrocytes were isolated as described in J. Tissue Culture Methods (1993) 15:139-146). Briefly, human articular cartilage was obtained at total knee replacement surgery from femoral condyles and the tibial plateau of 15 different donors. None of them had received corticosteroids or cytostatic drugs. Both visually intact and fibrillated OA cartilage samples were harvested separately and only OA cartilage was used for cell culture. The cartilage samples were diced into small fragments and the chondrocytes were isolated by sequential enzymatic digestion (hyaluronidase, pronase and collagenase) of the extracellular matrix (ECM) as described in Osteoarthritis Cartilage (2001) 9:73-84. Isolated cells were then centrifuged for 10 minutes at 1500 rpm, washed three times in Dulbecco's Modified Eagle's Medium (DMEM) with 10% (v/v) fetal calf serum, and counted with trypan blue to exclude dead cells. More than 90% of the cells were viable after isolation.
(§2) Chondrocytes were cultured in alginate beads, to maintain their differentiated phenotype. The cultures were prepared as described in Connect Tissue Res. (1989) 19:277-297. Chondrocytes suspended in one volume of double-concentrated Hank's Balanced Salts Solution (HBSS, commercially available from Gibco) without calcium and magnesium were carefully mixed with an equal volume of 2% (w/v) autoclaved alginate (low-viscosity alginate from Macrocystis pyrifera, commercially available from Sigma) in HBSS. The final cell concentration was 5×10^6 chondrocytes per ml in 1% alginate. The chondrocyte/alginate suspension was then slowly dripped through a 23-gauge needle into a 102 mM calcium chloride solution. […]
(§3) To study the impact of the changes in the chondrocyte cultures after cyclodextrin polysulfate treatment, mean IL-6 and aggrecan concentrations were calculated from triplicate chondrocyte cultures of each donor. […] Evolution of mouse weight over time was analysed by longitudinal data analysis methods, more specific by area under the curve and mixed model analysis. […]

[2] = test system: human articular chondrocytes from osteoarthritic (OA) cartilage; test: IL-6 release by OA chondrocytes in alginate beads; assay type: cell-based; details: 5 μg/ml, 5 culture days
Text: as §1, §2, §3

normal pooled plasma = test: Blood coagulation activities (aPTT, PT, fibrinogen) in normal pooled plasma; parameters: species or system human; details: after incubation with 50 or 100 μg/ml
Experimental: MA-CDPS, HP-CDPS, CE-CDPS and CDPS (as defined in examples 3-4 and characterised in table 1) were prepared as buffered solutions at various concentrations. The polysaccharides were incubated with normal pooled plasma prepared out of 40 healthy volunteers and analyzed for their effects on activated partial thromboplastin time (aPTT), prothrombin time (PT) and fibrinogen levels on a STA Compact® coagulation analyzer (available from Diagnostica Stago, Asnieres, France) according to the manufacturers instructions.

[3] = test system: healthy donor thrombocytes; test: Platelet activation (CD62p, flow cytometry) by HIT patient anti-heparin/PF4 antibodies; assay type: cell-based, human; details: for ratio: % CD62p+ (with substance)/% CD62p+ (without) / ΔCD62p+ %: percentage increases in CD62p positive platelets: 0.3 IU heparin or 5 μg/ml polysaccharide
Experimental: The activation of healthy donor thrombocytes by HIT patient anti-heparin/PF4 antibodies in the presence of heparin and the differently sulfated forms of β-cyclodextrin was tested. […] The expression of CD62p by the activated platelets was assayed by means of flow cytometry with a FC500 analyzer (available from Beckman Coulter, Belgium). Platelet-rich plasma solution (PRP) was prepared by slow centrifugation (10 minutes at 180 g) of fresh citrate anti-coagulated blood (1:9 v/v, 0.129 mol/L or 3.8% trisodium citrate buffer), obtained from normal donors. HIT Ab positive plasma samples from patients and HIT Ab negative control plasma from healthy donors were prepared by double centrifugation (15 minutes at 2230 rpm) of fresh citrate anti-coagulated blood. 70 μl of PRP was incubated with 20 μL of HIT Ab containing plasma optionally in the presence of heparin (0.3 IU/ml) or the relevant β-cyclodextrin derivative (5 μg/ml). Experiments with each HIT Ab positive plasma sample were repeated independently using thrombocytes of 2 donors (A and B), to avoid the possibility of non-reactive platelets.
Following the initial 40 minutes incubation step, 5 μl of the platelets solution was transferred to a fresh tube with 85 μL phosphate buffered saline (PBS) containing 1% bovine serum albumin (BSA) and 0.1% Na-azide, 5 μl (0.25 μg) monoclonal anti-CD41 antibodies (Ab) (phycoerythrin-Texas Red Energy coupled dye (ECD)-conjugated, Beckman Coulter) and 5 μl (0.125 μg) of anti-CD62p Ab (phycoerythrin (PE)-conjugated, Beckman Coulter). CD41 (Glycoprotein […]) is a selective marker of platelets and platelet precursors. CD62p is a constituent of alpha granules and is released to the platelet surface on activation.
After 20 minutes of incubation at room temperature, the total volume of the platelet suspension was adjusted to 600 μL buffered solution and evaluated without delay by flow cytometry. 20,000 events per sample were analysed and the platelet populations were gated by side scatter characteristics and the platelet marker CD41. The fraction of activated platelets among the total platelet population was determined and relative CD62p ratios to the internal controls were calculated. [ratio: % CD62p^+ (0.3 IU Heparine or 5 μg/ml β-cyclodextrin derivative)/% CD62p^+ (0 IU Heparine or 0 μg/ml β-cyclodextrin derivative)]. Test results for the heparin treated platelets were evaluated by the scoring system described in Thromb. Haemost. (1999) 82:1255-1259. Control tests were scored positive when the calculated ratios of at least 2 donors were more then 2, based on previously obtained results with normal individuals. To evaluate the potential of the different β-cyclodextrin derivatives to induce platelet activation, both the percentages and ratios of CD62p^+ platelets after incubation with the respective β-cyclodextrin were statistically compared to the percentage and the ratio of CD62p^+ platelets after heparin incubation.

[4] = test system: rabbit model of experimental osteoarthritis (OA); details: subcutaneously administered; cited from earlier work
thrombin clotting = details: in vitro; cited from earlier work
[5] = HIT ab plasma pat1, platelet donor dA
[6] = HIT ab plasma pat1, platelet donor dB
[7] = HIT ab plasma pat2, platelet donor dB
[8] = HIT ab plasma pat3, platelet donor dA
[9] = HIT ab plasma pat3, platelet donor dB
[10] = HIT ab plasma pat4, platelet donor dA
[11] = HIT ab plasma pat4, platelet donor dB

COC[C@H]1O[C@@H]2O[C@H]3[C@H](OC)[C@@H](OC)[C@@H](O[C@H]4[C@H](OC)[C@@H](OC)[C@@H](O[C@H]5[C@H](OC)[C@@H](OC)[C@@H](O[C@H]6[C@H](OC)[C@@H](OC)[C@@H](O[C@H]7[C@H](OC)[C@@H](OC)[C@@H](O[C@H]8[C@H](OC)[C@@H](OC)[C@@H](O[C@H]1[C@H](OC)[C@H]2OC)O[C@@H]8COC)O[C@@H]7COC)O[C@@H]6COC)O[C@@H]5COC)O[C@@H]4COC)O[C@@H]3COC [ME-CD, 2,3,6-tri-O-methyl-β-cyclodextrin]
effect on chondrocyte aggrecan synthesis [1]: failed to promote
effect on chondrocyte IL-6 release/secretion [2]: failed

2,3-di-O-methyl-6-sulfate-β-cyclodextrin [ME-CD-6-S]
effect on chondrocyte aggrecan synthesis [1]: failed to affect
effect on chondrocyte IL-6 release/secretion [2]: failed to affect

β-cyclodextrin polysulfate [CDPS]
fibrinogen concentrations (normal pooled plasma): Minor decreases
ratio: % CD62p+ (with substance)/% CD62p+ (without) [3, 5]: 5.8
ΔCD62p+ %: percentage increases in CD62p positive platelets [3, 5]: 76.1%
ratio: % CD62p+ (with substance)/% CD62p+ (without) [3, 6]: 6.5
ΔCD62p+ %: percentage increases in CD62p positive platelets [3, 6]: 73.1%
ΔCD62p+ %: percentage increases in CD62p positive platelets ([3]; HIT ab plasma pat2, platelet donor dA): 27.5%
ratio: % CD62p+ (with substance)/% CD62p+ (without) [3, 7]: 0.7
ΔCD62p+ %: percentage increases in CD62p positive platelets [3, 7]: −2.8%
ratio: % CD62p+ (with substance)/% CD62p+ (without) [3, 8]: 2.5
ΔCD62p+ %: percentage increases in CD62p positive platelets [3, 8]: 42.7%
ratio: % CD62p+ (with substance)/% CD62p+ (without) [3, 9]: 7.0
ΔCD62p+ %: percentage increases in CD62p positive platelets [3, 9]: 34.1%
ratio: % CD62p+ (with substance)/% CD62p+ (without) [3, 10]: 4.4
ΔCD62p+ %: percentage increases in CD62p positive platelets [3, 10]: 63.5%
ratio: % CD62p+ (with substance)/% CD62p+ (without) [3, 11]: 2.5
ΔCD62p+ %: percentage increases in CD62p positive platelets [3, 11]: 58.1%
platelet activation ([3]; in the presence of plasma samples of individuals that had developed HIT Ab): induced platelet activation
cartilage lesions and osteocyte formation in the affected joints [4]: reduced
thrombin clotting times (thrombin clotting): prolongation
thrombus formation (thrombin clotting): reduction

2,6-di-O-methyl-3-sulfate-β-cyclodextrin [ME-CD-3-S]
effect on chondrocyte aggrecan synthesis [1]: failed to affect
effect on chondrocyte IL-6 release/secretion [2]: failed to affect
